Data taken from patent US20120220577A1, “GLYCINE B ANTAGONISTS” (Merz Pharma GmbH & Co KgaA, priority 2009, published 2012).

Target: NMDA receptor glycine B site (Rattus norvegicus, UniProt P35439)
Test: Whole cell patch-clamp recordings, rat hippocampal neurons (NMDA/D-Serine currents)
Type: cell-based
Details: NMDA 200 μM + D-Serine 1 μM, -70 mV, read-out: NMDA-PC-r-HIC-NAM - IC50
Procedure: Antagonistic potencies of the test compounds are functionally evaluated using electrophysiological whole cell patch-clamp recordings and/or fluorometric intracellular Ca^2+-imaging (FLIPR) screens.
Cell preparation is performed as described by Parsons, et al. (Neuropharmacology, 1998, 37(6), 719-727). The female Sprague-Dawley rat is anaesthetised by placing in a saturated CO2-euthanasia chamber under further quiet CO2-influx. Under these conditions the rat loses consciousness after a few seconds and is then sacrificed by cervical dislocation. After opening the abdominal cavity, embryos (E20) are removed and stored in ice cold Ca^2+- and Mg^2+-free Hank's Buffered Salt Solution (pH 7.3), containing 4 g/l glucose (HBSS-CMF). Hippocampi are then isolated from the brains of at least 8 embryos after decapitation, transferred into ice cold HBSS-CMF and washed 3 to 4 times.
Hippocampi are pre-incubated for 8 min with a 0.66% trypsin (Sigma-Aldrich) and 0.1% (20 U/ml) DNAase solution (Sigma-Aldrich) in Ca^2+-free Phosphate Buffered Saline (PBS-CF) and washed 3 times with HBSS-CMF. Cells are then mechanically dissociated by trituration in a PBS-CF solution containing 0.05% (10 U/ml) DNAase and 0.3% of the trypsin inhibitor ovomucoid (all from Sigma-Aldrich). The cells are then centrifuged at 180×g for 10 minutes, and the cell pellet re-suspended in basal Minimum essential medium (MEM, Invitrogen, Karlsruhe, Germany), again carefully triturated to ensure maximal dissociation and finally plated in the flexiPERM inserts (Thermo Fisher Scientific, Langenselbold, Germany) at a density of 15×10^3 cells/cm^2 (0.5 ml/insert) onto poly-DL-ornithine (Sigma) and mouse laminin (Invitrogen) pre-coated plastic petri dishes. After 1 hour the cells become attached to the bottom of the dish and the inserts may be removed. The cells are then nourished with 2 ml MEM supplemented with 5% foetal calf serum (FCS) and 5% horse serum and incubated at 37° C. with 95% air and 5% CO2 at 95% humidity. After 4 days in vitro (DIV) further glial mitosis is inhibited by adding 10 μl of AraC (5 μM endconcentration). The medium is completely exchanged after an additional 2 DIV and again, but only partly (50%), after 8 DIV. The cells are used for electrophysiological recordings after 11-15 DIV.
Cells are visualised using an inverted microscope and selected for patching based upon their position and morphology. Voltage clamp recordings are made in the whole cell configuration of the patch clamp technique at a holding potential of −70 mV with the aid of an EPC-10 amplifier in combination with pipette manipulator. Patch clamp pipettes are pulled from borosilicate glass using a horizontal puller (P-97 Puller, Sutter Instruments, USA) and, when filled with intracellular solution, have resistances of 1-4 MΩ.
Solutions are delivered via a home-made gravity driven very fast perfusion system (<10 ms) including valves to switch flow on and off in combination with a stepper motor-driven double-barrelled theta glass application pipette in order to expose cells to either agonist-free or agonist-containing solutions in presence or absence of antagonist.
The intracellular solution used consists of: 120 mM CsCl, 10 mM EGTA, 1 mM MgCl2, 200 μM CaCl2, 10 mM glucose and 22 mM tetraethyl ammonium chloride (TEA-CL). The corresponding extracellular bath solution contains: 140 mM NaCl, 3 mM KCl, 10 mM glucose, 10 mM HEPES, 1.5 mM CaCl2 and 4.5 mM sucrose (all from Sigma-Aldrich) pH 7.3, and is supplemented with 0.3 μM tetrodotoxin (TTX, Tocris, Bristol, U.K.) to block voltage-activated sodium channels and 0.25 μM bicuculline (Sigma-Aldrich) to block GABAA receptors. […]

| Compound | IC50 [nM] |
| --- | --- |
| O=C(O)COc1cc(C(=O)O)cc2cc(Cl)cc(Cl)c12 [Example 1, 4-Carboxymethoxy-5,7-dichloronaphthalene-2-carboxylic acid] | 850 |
| O=C(COc1cc(C(=O)O)cc2cc(Cl)cc(Cl)c12)Nc1ccccc1C(=O)O [Example 3, 4-[(2-Carboxy-phenylcarbamoyl)-methoxy]-5,7-dichloro-naphthalene-2-carboxylic acid] | 493 |
| O=C(O)Cc1ccc(NC(=O)COc2cc(C(=O)O)cc3cc(Cl)cc(Cl)c23)cc1 [Example 7, 4-[(4-Carboxymethylphenylcarbamoyl)-methoxy]-5,7-dichloronaphthalene-2-carboxylic acid] | 510 |
| CN(C(=O)COc1cc(C(=O)O)cc2cc(Cl)cc(Cl)c12)c1ccc(C(=O)O)cc1 [Example 14, 4-{[(4-Carboxy-phenyl)-methylcarbamoyl]-methoxy}-5,7-dichloronaphthalene-2-carboxylic acid] | 727 |
| O=C(O)Cc1ccccc1NC(=O)COc1cc(C(=O)O)cc2cc(Cl)cc(Cl)c12 [Example 15, 4-[(2-Carboxymethylphenylcarbamoyl)-methoxy]-5,7-dichloronaphthalene-2-carboxylic acid] | 356 |
| O=C(COc1cc(C(=O)O)cc2cc(Cl)cc(Cl)c12)NCc1ccccc1 [Example 18, 4-(Benzylcarbamoylmethoxy)-5,7-dichloro-naphthalene-2-carboxylic acid] | 465 |
| O=C(O)c1cc(OCC(=O)N2CCCc3ccccc32)c2c(Cl)cc(Cl)cc2c1 [Example 50, 5,7-Dichloro-4-[2-(3,4-dihydro-2H-quinolin-1-yl)-2-oxo-ethoxy]-naphthalene-2-carboxylic acid] | 542 |
| COCC(Oc1cc(C(=O)O)cc2cc(Cl)cc(Cl)c12)C(=O)Nc1ccccc1OC (centres unmarked) [Example 74, 5,7-Dichloro-4-[2-methoxy-1-(2-methoxy-phenylcarbamoyl)-ethoxy]-naphthalene-2-carboxylic acid] | 288 |

Now those with a lower IC50, led by results:

| IC50 [nM] | Compound |
| --- | --- |
| 258 | O=C(COc1cc(C(=O)O)cc2cc(Cl)cc(Cl)c12)Nc1ccccc1CO [Example 5, 5,7-Dichloro-4-[(2-hydroxymethylphenylcarbamoyl)-methoxy]-naphthalene-2-carboxylic acid] |
| 178 | O=C(O)Cc1cccc(NC(=O)COc2cc(C(=O)O)cc3cc(Cl)cc(Cl)c23)c1 [Example 13, 4-[(3-Carboxymethylphenylcarbamoyl)-methoxy]-5,7-dichloronaphthalene-2-carboxylic acid] |
| 198 | CN(C(=O)COc1cc(C(=O)O)cc2cc(Cl)cc(Cl)c12)c1ccccc1C(=O)O [Example 20, 4-{[(2-Carboxyphenyl)-methylcarbamoyl]-methoxy}-5,7-dichloronaphthalene-2-carboxylic acid] |
| 23 | NCc1ccc(NC(=O)COc2cc(C(=O)O)cc3cc(Cl)cc(Cl)c23)c(OCC(=O)O)c1 [Example 34, 4-[(4-Aminomethyl-2-carboxymethoxyphenylcarbamoyl)-methoxy]-5,7-dichloronaphthalene-2-carboxylic acid] |
| 50 | O=C(O)COc1ccccc1NC(=O)COc1cc(C(=O)O)cc2cc(Cl)cc(Cl)c12 [Example 42, 4-[(2-Carboxymethoxyphenylcarbamoyl)-methoxy]-5,7-dichloronaphthalene-2-carboxylic acid] |
| 169 | O=C(COc1cc(C(=O)O)cc2cc(Cl)cc(Cl)c12)Nc1ccccc1OCC(=O)N1CCOCC1 [Example 54, 5,7-Dichloro-4-{[2-(2-morpholin-4-yl-2-oxo-ethoxy)-phenylcarbamoyl]-methoxy}-naphthalene-2-carboxylic acid] |
| 59 | O=C(O)COc1ccccc1CNC(=O)COc1cc(C(=O)O)cc2cc(Cl)cc(Cl)c12 [Example 59, 4-[(2-Carboxymethoxy-benzylcarbamoyl)-methoxy]-5,7-dichloro-naphthalene-2-carboxylic acid] |
| 65 | O=C(COc1cc(C(=O)O)cc2cc(Cl)cc(Cl)c12)Nc1ccccc1OCc1nnn[nH]1 [Example 60, 5,7-Dichloro-4-{[2-(1H-tetrazol-5-ylmethoxy)-phenylcarbamoyl]-methoxy}-naphthalene-2-carboxylic acid] |
| 253 | O=C(O)c1cc(OCC(=O)N2CCOc3c(CO)cccc32)c2c(Cl)cc(Cl)cc2c1 [Example 78, 5,7-Dichloro-4-[2-(8-hydroxymethyl-2,3-dihydro-benzo[1,4]oxazin-4-yl)-2-oxo-ethoxy]-naphthalene-2-carboxylic acid] |
